Assay [1] addresses T1, biotinylated truncated STAT6 (123-632)-avi (Homo sapiens, UniProt P42226).
T1 construct: 0.15 nM biotinylated truncated STAT6 (123-632)-avi purified from E. coli; made in house; host or cells: E. coli
T1 sequence (P42226 123-632 limits assumed): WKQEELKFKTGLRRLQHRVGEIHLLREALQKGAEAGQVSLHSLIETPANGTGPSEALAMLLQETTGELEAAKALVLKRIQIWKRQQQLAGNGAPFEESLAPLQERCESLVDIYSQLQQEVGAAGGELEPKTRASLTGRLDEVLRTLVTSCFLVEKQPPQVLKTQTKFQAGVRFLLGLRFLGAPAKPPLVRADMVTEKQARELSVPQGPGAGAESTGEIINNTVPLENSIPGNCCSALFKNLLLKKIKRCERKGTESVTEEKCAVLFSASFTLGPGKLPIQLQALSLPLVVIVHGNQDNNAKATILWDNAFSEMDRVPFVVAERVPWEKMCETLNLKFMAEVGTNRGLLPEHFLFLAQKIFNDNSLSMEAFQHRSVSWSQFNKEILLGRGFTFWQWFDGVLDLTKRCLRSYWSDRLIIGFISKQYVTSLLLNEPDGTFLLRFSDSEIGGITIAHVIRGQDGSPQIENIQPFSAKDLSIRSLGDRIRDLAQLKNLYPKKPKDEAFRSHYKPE
As to the kind of experiment: STAT6 HTRF binding assay. Conditions: 0.15 nM STAT6 (123-632)-avi, 20 nM fluorescein-labeled probe, 30 minutes at room temperature. Here is the method: HTRF binding assays were perforned using 0.15 nM biotinylated truncated STAT6 (123-632)-avi purified from E. coli, 1× Streptavidin-terbium (CisBio) prepared by mixing SA-Tb in PPI detection buffer (CisBio), 20 nM proprietary fluorescein-labeled probe, and test compounds in assay buffer consisting of 50 mM HEPES-Na pH 7.5, 100 mM NaCl, 1 mM EDTA, 2 mM DTT, 0.1% Tween-20 with a final volume of 20 uL. Compound stocks were dissolved at 10 mM in 100% DMSO and 11 point titration with 3 fold serial dilution was performed in white, opaque 384 well microplates. Reaction plates were incubated at room temperature for 30 minutes. Plates were centrifuged at low rpm for 5 mins, and the ratio of fluorescence intensities were measured at emission wavelengths for fluorescein acceptor (520 nm) and terbium donor (495 nm) on Envision Plate reader. % Inhibition was calculated from the 520/495 ratio generated by using proprietary positive control compound for 100% inhibition and DMSO only reactions for 0% inhibition. Data was processed and dose response curves were generated using GraphPad Prism to determine the concentration required for inhibiting 50% of the HTRF signal (IC50).
The letter codes for IC50 (μM) include: A (<0.1 μM); B (0.1-1 μM); C (>1-10 μM); D (>10-100 μM); E (>100 μM); and F (not tested).

Assay [2] addresses T2, STAT6 (Homo sapiens, UniProt P42226).
T2 construct: endogenous in cells; host or cells: A549 (STAT6-HiBiT), endogenous locus tagged
T2 sequence (P42226 1-847): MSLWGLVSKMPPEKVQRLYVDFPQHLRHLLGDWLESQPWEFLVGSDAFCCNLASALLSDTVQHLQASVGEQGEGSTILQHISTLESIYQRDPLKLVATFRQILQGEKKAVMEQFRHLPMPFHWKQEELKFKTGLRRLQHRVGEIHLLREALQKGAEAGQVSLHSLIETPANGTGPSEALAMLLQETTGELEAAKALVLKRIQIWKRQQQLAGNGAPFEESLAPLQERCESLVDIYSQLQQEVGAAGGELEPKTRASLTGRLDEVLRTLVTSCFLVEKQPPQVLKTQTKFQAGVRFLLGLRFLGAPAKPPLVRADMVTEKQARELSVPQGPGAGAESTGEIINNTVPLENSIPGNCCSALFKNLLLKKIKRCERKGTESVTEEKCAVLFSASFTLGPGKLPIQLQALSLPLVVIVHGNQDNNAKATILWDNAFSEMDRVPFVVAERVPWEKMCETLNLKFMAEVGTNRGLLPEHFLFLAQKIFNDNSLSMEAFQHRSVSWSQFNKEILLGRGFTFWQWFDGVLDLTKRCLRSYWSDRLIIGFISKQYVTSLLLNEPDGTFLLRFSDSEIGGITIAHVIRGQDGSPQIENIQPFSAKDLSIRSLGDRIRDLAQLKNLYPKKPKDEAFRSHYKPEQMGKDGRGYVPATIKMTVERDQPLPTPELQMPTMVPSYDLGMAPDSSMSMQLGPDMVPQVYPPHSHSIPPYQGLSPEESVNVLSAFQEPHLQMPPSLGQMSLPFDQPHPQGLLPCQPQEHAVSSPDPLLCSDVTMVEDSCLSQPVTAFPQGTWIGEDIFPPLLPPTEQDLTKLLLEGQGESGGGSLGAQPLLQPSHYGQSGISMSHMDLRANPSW
In words: STAT6 MSD degradation in A549 cells. Format: cell-based. Particulars: 24 h. On the procedure:
Degradation of STAT6 in cells was quantitatively measured using Meso Scale Discovery (MSD) technology. A549 cells were seeded in 96-well plates with a density of 1.5×10e4 to 5×10e5 cells per well in 100 μl fresh media. Compounds were then added to the assay plates with a final top concentration of up to 10 uM in a 1:3 dilution series with total of 9 doses. The assay plates were then incubated for 4 to 24 hours at 37° C. under 5% CO2. The assay plates were then centrifuged for 5 minutes and the cell pellets were treated with 100 μl/well RIPA lysis buffer (Boston Bioproducts, BP-115D) with protease and phosphatase inhibitors (Roche, 05892791001 and 04906837001). To prepare the MSD assay plates (MSD, L15XA), the plates were coated with the capture antibody (Abnova, H00006778) in PBS, at 40 μl/well. The plates were then incubated overnight at 4° C., washed 1 time with […] TBST buffer (Cell Signaling Technology, #9997S) and blocked with 150 μl/well blocking buffer (MSD, R93BA-4). Cell lysates were then added to MSD assay plates and the plates were incubated at room temperature for 1 hour. The plates were then washed 3 times with 150 μl/well TBST buffer and 25 μl/well primary detection antibody (Cell Signaling Technology, #5397S). The assay plates were then incubated at room temperature for 1 hour, washed 3 times with 150 μl/well TBST buffer, and 25 μl/well secondary detection antibody, SULFO-TAG anti-rabbit antibody (MSD, R32AB-1) were added. The assay plates were then incubated at room temperature for 1 hour, washed 3 times with 150 μl/well TBST buffer, and 150 μl/well MSD reading buffer (MSD, R92TC-2) were added. The plates were then analyzed by an MSD reader. The data was analyzed by GraphPad Prism and the dose dependent STAT6 degradation was fit using the four-parameter inhibitor vs. response nonlinear regression.
The letter codes for DC50 (nM) include: A (<1 nM); B (1-10 nM); C (>10-100 nM); D (>100-1000 nM); E (>1000 nM); and F (not tested). The letter codes for Dmax (%) include: A (>90%); B (>70-90%); C (>50-70%); D (<50%); and E (not tested).

The values that follow come from patent US20260209206A1, “STAT6 DEGRADERS AND USES THEREOF” (Kymera Therapeutics, Inc., priority 2023, published 2026).

In assay [1], `CN(C)C(=O)c1cc2ccc(C3=CCCN(C(=O)C4Cc5c(cccc5OCCOCCOCCOCCc5cccc6c5n(C)c(=O)n6C5CCC(=O)NC5=O)CN4C=O)C3)cc2[nH]1` (stereo not drawn) [I-98] gave a half-inhibitory concentration (IC50) of 10 to 100 µM. In assay [2], the DC50 is more than 1000 nM and the Dmax was less than 50%.
